{"source": "patent US20250304559A1", "about": "“Ether-Linked Antiviral Compounds” (Pfizer Inc., priority 2021, published 2025)", "key": {"[1]": {"molecular_target": "T1, SARS-CoV-2 3CL protease (Severe acute respiratory syndrome coronavirus 2, UniProt P0DTD1)", "T1 construct": "measures the activity of full-length SARS-CoV-2 3CL protease", "assay": "SARS-CoV-2 Coronavirus 3C Protease FRET Assay", "assay_type": "biochemical", "details": "Morrison equation fit, 15 nM enzyme, 25 μM peptide substrate"}, "[2]": {"test_system": "SARS-CoV-2 (USA_WA1/2020)", "assay": "Antiviral Activity from SARS-CoV-2 Infection (cytopathic effect, Cell Titer-Glo)", "assay_type": "cell-based", "details": "Severe acute respiratory syndrome coronavirus 2, Vero C1008, 72 h, tested alone or with P-gp inhibitor CP-100356 2 μM (table does not say which)"}, "[3]": {"details": "Examples 14-78 and 114 (second head of Table 2), read-out: Geometric Mean Ki (nM) IC50"}, "[4]": {"details": "VeroE6 cells enriched for hACE2, MOI 0.002, 3-day incubation, read-out: Geometric Mean EC50"}, "[5]": {"details": "Examples 1-13, 60 minutes at 23° C., read-out: Geometric Mean Ki"}}, "note": "Where two headings read alike, the source gives them in different places."}
{"smiles": "COC(=O)N[C@H](C(=O)N1C[C@H]2[C@@H]([C@H]1C(=O)N[C@@H](C[C@@H]1CCNC1=O)C(=O)COc1cccc(Cl)c1)C2(C)C)C(C)C", "note": "[Example 25, methyl {(2S)-1-[(1R,2S,5S)-2-({(2S)-4-(3-chlorophenoxy)-3-oxo-1-[(3S)-2-oxopyrrolidin-3-yl]butan-2-yl}carbamoyl)-6,6-dimethyl-3-azabicyclo[3.1.0]hexan-3-yl]-3-methyl-1-oxobutan-2-yl}carbamate]", "values": [{"measurement": "Ki", "setting": "[1]; [3]", "value": 1.76, "unit": "nM"}, {"measurement": "EC50", "setting": "[2]; [4]", "value": 38.2, "unit": "nM"}]}
{"smiles": "COC(=O)N[C@H](C(=O)N1C[C@H]2[C@@H]([C@H]1C(=O)N[C@@H](C[C@@H]1CCNC1=O)C(=O)COc1ccccc1F)C2(C)C)C(C)(C)C", "note": "[Example 22, methyl {(2S)-1-[(1R,2S,5S)-2-({(2S)-4-(2-fluorophenoxy)-3-oxo-1-[(3S)-2-oxopyrrolidin-3-yl]butan-2-yl}carbamoyl)-6,6-dimethyl-3-azabicyclo[3.1.0]hexan-3-yl]-3,3-dimethyl-1-oxobutan-2-yl}carbamate]", "values": [{"measurement": "Ki", "setting": "[1]; [3]", "value": 4.78, "unit": "nM"}, {"measurement": "EC50", "setting": "[2]; [4]", "value": 52, "unit": "nM"}]}
{"smiles": "CC(C)[C@H](NC(=O)C(F)(F)F)C(=O)N1C[C@H]2[C@@H]([C@H]1C(=O)N[C@@H](C[C@@H]1CCNC1=O)C(=O)COc1ccccc1F)C2(C)C", "note": "[Example 47, (1R,2S,5S)-N-{(2S)-4-(2-fluorophenoxy)-3-oxo-1-[(3S)-2-oxopyrrolidin-3-yl]butan-2-yl}-6,6-dimethyl-3-[N-(trifluoroacetyl)-L-valyl]-3-azabicyclo[3.1.0]hexane-2-carboxamide]", "values": [{"measurement": "Ki", "setting": "[1]; [3]", "value": 8.58, "unit": "nM"}, {"measurement": "EC50", "setting": "[2]; [4]", "value": 59.7, "unit": "nM"}]}
{"smiles": "CC(C)(C)[C@H](NS(=O)(=O)C(F)(F)F)C(=O)N1C[C@H]2[C@@H]([C@H]1C(=O)N[C@@H](C[C@@H]1CCNC1=O)C(=O)COc1ccc(F)cc1)C2(C)C", "note": "[Example 29, (1R,2S,5S)-N-{(2S)-4-(4-fluorophenoxy)-3-oxo-1-[(3S)-2-oxopyrrolidin-3-yl]butan-2-yl}-6,6-dimethyl-3-[3-methyl-N-(trifluoromethanesulfonyl)-L-valyl]-3-azabicyclo[3.1.0]hexane-2-carboxamide]", "values": [{"measurement": "Ki", "setting": "[1]; [3]", "value": 4.69, "unit": "nM"}, {"measurement": "EC50", "setting": "[2]; read-out: Geometric Mean EC50 (nM), VeroE6 cells enriched for hACE2, MOI 0.002, 3-day incubation", "value": 57, "unit": "nM"}]}
{"smiles": "CC(C)(C)[C@H](NS(=O)(=O)C(F)(F)F)C(=O)N1C[C@H]2[C@@H]([C@H]1C(=O)N[C@@H](C[C@@H]1CCNC1=O)C(=O)COc1ccc(F)cc1F)C2(C)C", "note": "[Example 3, (1R,2S,5S)-N-{(2S)-4-(2,4-difluorophenoxy)-3-oxo-1-[(3S)-2-oxopyrrolidin-3-yl]butan-2-yl}-6,6-dimethyl-3-{3-methyl-N-[(trifluoromethyl)sulfonyl]-L-valyl}-3-azabicyclo[3.1.0]hexane-2-carboxamide]", "values": [{"measurement": "Ki", "setting": "[1]; [5]", "value": 3.5, "unit": "nM"}, {"measurement": "EC50", "setting": "[2]; [4]", "value": 207, "unit": "nM"}]}
{"smiles": "COC(=O)N[C@H](C(=O)N1C[C@H]2[C@@H]([C@H]1C(=O)N[C@@H](C[C@@H]1CCNC1=O)C(=O)COc1ccc(F)cc1F)C2(C)C)C(C)(C)C", "note": "[Example 24, methyl {(2S)-1-[(1R,2S,5S)-2-({(2S)-4-(2,4-difluorophenoxy)-3-oxo-1-[(3S)-2-oxopyrrolidin-3-yl]butan-2-yl}carbamoyl)-6,6-dimethyl-3-azabicyclo[3.1.0]hexan-3-yl]-3,3-dimethyl-1-oxobutan-2-yl}carbamate]", "values": [{"measurement": "Ki", "setting": "[1]; [3]", "value": 1.41, "unit": "nM"}, {"measurement": "EC50", "setting": "[2]; [4]", "value": 17, "unit": "nM"}]}
{"smiles": "Cc1ccc2c(OCC(=O)[C@H](C[C@@H]3CCNC3=O)NC(=O)[C@@H]3[C@@H]4[C@H](CN3C(=O)[C@@H](NC(=O)C(F)(F)F)C(C)C)C4(C)C)noc2c1", "note": "[Example 51, (1R,2S,5S)-6,6-dimethyl-N-{(2S)-4-[(6-methyl-1,2-benzoxazol-3-yl)oxy]-3-oxo-1-[(3S)-2-oxopyrrolidin-3-yl]butan-2-yl}-3-[N-(trifluoroacetyl)-L-valyl]-3-azabicyclo[3.1.0]hexane-2-carboxamide]", "values": [{"measurement": "Ki", "setting": "[1]; [3]", "value": 10.5, "unit": "nM"}, {"measurement": "EC50", "setting": "[2]; [4]", "value": 94.2, "unit": "nM"}]}
{"smiles": "CC(C)[C@H](NC(=O)C(F)(F)F)C(=O)N1C[C@H]2[C@@H]([C@H]1C(=O)N[C@@H](C[C@@H]1CCNC1=O)C(=O)COc1ccccc1)C2(C)C", "note": "[Example 23, (1R,2S,5S)-6,6-dimethyl-N-{(2S)-3-oxo-1-[(3S)-2-oxopyrrolidin-3-yl]-4-phenoxybutan-2-yl}-3-[N-(trifluoroacetyl)-L-valyl]-3-azabicyclo[3.1.0]hexane-2-carboxamide]", "values": [{"measurement": "Ki", "setting": "[1]; [3]", "value": 1.78, "unit": "nM"}, {"measurement": "EC50", "setting": "[2]; [4]", "value": 32, "unit": "nM"}]}
{"smiles": "CC(C)[C@H](NS(=O)(=O)C(F)(F)F)C(=O)N1C[C@H]2[C@@H]([C@H]1C(=O)N[C@@H](C[C@@H]1CC(=O)NC1=O)C(=O)COc1ccc(F)cc1F)C2(C)C", "note": "[Example 49, (1R,2S,5S)-N-{(2S)-4-(2,4-difluorophenoxy)-1-[(3R)-2,5-dioxopyrrolidin-3-yl]-3-oxobutan-2-yl}-6,6-dimethyl-3-[N-(trifluoromethanesulfonyl)-L-valyl]-3-azabicyclo[3.1.0]hexane-2-carboxamide]", "values": [{"measurement": "Ki", "setting": "[1]; [3]", "value": 9.93, "unit": "nM"}, {"measurement": "EC50", "setting": "[2]; [4]", "value": 2010, "unit": "nM"}]}
{"smiles": "CC(C)[C@H](NS(=O)(=O)C(F)(F)F)C(=O)N1C[C@H]2[C@@H]([C@H]1C(=O)N[C@@H](C[C@@H]1CCNC1=O)C(=O)COc1cccc(Cl)c1)C2(C)C", "note": "[Example 40, (1R,2S,5S)-N-{(2S)-4-(3-chlorophenoxy)-3-oxo-1-[(3S)-2-oxopyrrolidin-3-yl]butan-2-yl}-6,6-dimethyl-3-[N-(trifluoromethanesulfonyl)-L-valyl]-3-azabicyclo[3.1.0]hexane-2-carboxamide]", "values": [{"measurement": "Ki", "setting": "[1]; [3]", "value": 4.22, "unit": "nM"}, {"measurement": "EC50", "setting": "[2]; [4]", "value": 112, "unit": "nM"}]}
{"smiles": "CC[C@@H]([C@H](NS(=O)(=O)C(F)(F)F)C(=O)N1C[C@H]2[C@@H]([C@H]1C(=O)N[C@@H](C[C@@H]1CCNC1=O)C(=O)COc1ccc(F)cc1F)C2(C)C)C(F)(F)F", "note": "[Example 70, (1R,2S,5S)-N-{(2S)-4-(2,4-difluorophenoxy)-3-oxo-1-[(3S)-2-oxopyrrolidin-3-yl]butan-2-yl}-6,6-dimethyl-3-[3′,3′,3′-trifluoro-N-(trifluoromethanesulfonyl)-L-isoleucyl]-3-azabicyclo[3.1.0]hexane-2-carboxamide]", "values": [{"measurement": "Ki", "setting": "[1]; [3]", "value": 203, "unit": "nM"}, {"measurement": "EC50", "setting": "[2]; [4]", "value": 5440, "unit": "nM"}]}
{"smiles": "CC(C)C[C@@H](C(=O)N1C[C@H]2[C@@H]([C@H]1C(=O)N[C@@H](C[C@@H]1CCNC1=O)C(=O)COc1cc(C(F)(F)F)nn1C)C2(C)C)N(C)C(C)C", "note": "(single isomer, unassigned) [Example 65, (1R,2S,5S)-6,6-dimethyl-3-[N-methyl-N-(propan-2-yl)-L-leucyl]-N-{(2R*)-4-{[1-methyl-3-(trifluoromethyl)-1H-pyrazol-5-yl]oxy}-3-oxo-1-[(3S)-2-oxopyrrolidin-3-yl]butan-2-yl}-3-azabicyclo[3.1.0]hexane-2-carboxamide, DIAST-1]", "values": [{"measurement": "Ki", "setting": "[1]; [3]", "value": 96.7, "unit": "nM"}, {"measurement": "EC50", "setting": "[2]; [4]", "value": 133, "unit": "nM"}]}
{"smiles": "CC(C)[C@H](NS(=O)(=O)C(F)(F)F)C(=O)N1C[C@H]2[C@@H]([C@H]1C(=O)N[C@@H](C[C@@H]1CCNC1=O)C(=O)COc1cccc(C(F)(F)F)c1)C2(C)C", "note": "[Example 5, (1R,2S,5S)-6,6-dimethyl-N-{(2S)-3-oxo-1-[(3S)-2-oxopyrrolidin-3-yl]-4-[3-(trifluoromethyl)phenoxy]butan-2-yl}-3-{N-[(trifluoromethyl)sulfonyl]-L-valyl}-3-azabicyclo[3.1.0]hexane-2-carboxamide]", "values": [{"measurement": "Ki", "setting": "[1]; [5]", "value": 10.6, "unit": "nM"}, {"measurement": "EC50", "setting": "[2]; [4]", "value": 205, "unit": "nM"}]}
{"smiles": "COC(=O)N[C@H](C(=O)N1C[C@H]2[C@@H]([C@H]1C(=O)N[C@@H](C[C@@H]1CCNC1=O)C(=O)COc1ccccc1)C2(C)C)C(C)(C)C", "note": "[Example 30, methyl{(2S)-1-[(1R,2S,5S)-6,6-dimethyl-2-({(2S)-3-oxo-1-[(3S)-2-oxopyrrolidin-3-yl]-4-phenoxybutan-2-yl}carbamoyl)-3-azabicyclo[3.1.0]hexan-3-yl]-3,3-dimethyl-1-oxobutan-2-yl}carbamate]", "values": [{"measurement": "Ki", "setting": "[1]; [3]", "value": 2.15, "unit": "nM"}, {"measurement": "EC50", "setting": "[2]; [4]", "value": 27.2, "unit": "nM"}]}
